The values that follow come from article PMC10082216 (Nature Communications, 2023).

Structures can show the parent of a compound that is named as a salt. Where two headings read alike, the source gives them in different places.

The subject of data set [1] is mature stage V gametocytes (NF54 strain). Nature of the data set: microbe, parasite or virus in culture. In kind it is cell-based, Plasmodium falciparum. Conditions: read-out: Stiffening IC50 (retention). The procedure:
(§1) Screening was conducted as previously described. Briefly, mature stage V gametocytes (NF54 strain) were cultured in vitro, then exposed to the explored compounds and filtered thereafter through layers of microspheres (microsphiltration)[25],[28]. Stiffening activity was determined by comparing gametocytemia up and downstream from the microsphere layers after filtration of drug-exposed gametocytes in 384-well plates using a vacuum manifold. Gametocytemia was assessed using DNA (Sybr Green) and erythrocyte membrane (CellMask) staining. Killing effect was assessed by MitoTracker staining. We screened two small libraries, specifically the Pathogen Box from the Medicine for Malaria Venture and the Kinase Inhibitors Box from GSK (400 and 350 compounds, respectively, Fig. 1A, B), and furthermore the larger ReFrame repurposing library (12,805 compounds, Fig. 1C).
(§2) The Pathogen Box library (400 compounds, provided by MMV-Medicine for Malaria Ventures, Geneva, Switzerland), the Kinase Inhibitors Box library (350 compounds, provided by GSK-Glaxo SmithKline DDW Unit, Tres Cantos, Spain), and the ReFrame library (12,805 compounds provided by the California Institute for Biomedical Research-Calibr, La Jolla, CA, USA) were used according to the providers’ instructions. DMSO-solubilized compounds (10 mM stock concentration) were loaded in 384-well plates (Seahorse, cat. no. 201035−100). Two columns were left empty for the controls. For each compound, 5 nL were pre-spotted in a single well to reach a final concentration of 1.11 μM. The final volume for each well was 45 μl. Controls were prepared as follows: 22.5 nL of DMSO were loaded in 16 wells as negative controls (0.05% final concentration); 22.5 nL of NITD609 (provided by MMV, Geneva, Switzerland) 1 mM were loaded in 8 wells (0.5 μM final concentration), 17 nL of Calyculin A (Sigma, cat. no. C5552) […] were loaded in 6 wells (75 nM final concentration) and 225 nL of Gentian Violet (MolPort, cat. no. 002-133-551) 10 mM were loaded in the remaining 2 wells (50 μM final concentration). Plates were prepared in triplicate for the Pathogen Box and sextuplicate for the Kinase Inhibitors Box.
(§3) Plasmodium falciparum NF54 strain parasites (used for screening campaign) were cultured at 4% hematocrit in RBCs from informed blood donors (blood group A) as previously described. Parasites were taken from the -80 °C freezer, then rapidly melt for 1 minute in a 37 °C water bath. A saline solution was gently added to avoid the lysis. Firstly, NaCl dissolved at 12% in distilled water (1/5 of the volume measured in the cryovial) and then NaCl dissolved at 1.6% (9 times the cryovial’s volume). After that, fresh RBCs were added to allow parasites re-growth. Infected RBCs were kept in RPMI medium (Sigma-Aldrich, cat. no. R4130), supplemented with 10% of decomplemented human serum, hypoxanthine 50 mg/l (Sigma-Aldrich, cat. no. H9636). Biobank of Castilla y Leon and Centro de Transfusiones de Madrid as providers of human red blood cell concentrates. The production of gametocytes was induced from a 0.5% ring-stage parasitemia (day 0). Medium was changed daily to induce gametocytes differentiation, as previously described. At day 17, gametocytes were concentrated using a density gradient medium (NycoPrep 1.077, Progen cat. no. 1114550)[27]. Parasitemia was adjusted by FACS (SYBR-Green and MitoTracker double staining, 3–5% targeted). Hematocrit was adjusted to 0.5% by adding fresh RBCs and controlled by manual counting in a Neubauer chamber (Celeromics, cat. no. 717810). Finally, the gametocyte suspension was poured (45 μL/well) into the compound-containing 384-well microplate, then incubated 24 hours both for the screening campaign and the dose-response analysis. Both asexual and sexual stages were cultivated in RPMI 1640 supplemented with 25 mM HEPES, 50 mg/L hypoxanthine, 50 μg/mL gentami-cin, 10% pooled heat-inactivated human serum (A^+).

For data set [2] the test system is unchanged. Nature of the data set: High-throughput screening: killing effect by MitoTracker staining, primary screening at 1.11 µM and dose-response analysis. In kind it is cell-based, Plasmodium falciparum. Conditions: for IC50: stage V gametocytes NF54, 24 h, dose-response analysis, N/A = not active in dose-response analysis, read-out: Killing IC50. As for the experimental part: as §1, §2, §3

A short description of data set [3]: Hit scoring on safety in human subjects and pharmacokinetics. Conditions: for Score (PK): peak plasma concentration vs IC50. An excerpt:
Hits from the ReFrame library were further selected based on safety, preferably oral administration (high score if oral), and potential availability for widespread use.

Another data set relates to P.falciparum Dd2. Details: method as in previously published reports (Table S1 legend). Conditions: 72 h; results in previous assays; ref previously published reports (Table S1 legend); read-out: 72-h Dd2-SybrGreen PBFS assay IC50; cited from earlier work.
The subject of the next data set is HEK293T. Conditions: cited from earlier work.
The subject of a further data set is HepG2. Conditions: cited from earlier work.
Setting [4] is: Plasmodium falciparum, NF54, 24 h.
Where [5] appears, read: stage V gametocytes NF54, 24 h, dose-response analysis, N/A = not active in dose-response analysis.
Setting [6] is: read-out: Cellular cytotoxicity assay IC50, HEK293T, 72 h, first value of cell, ref previously published reports (Table S1 legend).
Where [7] appears, read: read-out: Cellular cytotoxicity assay IC50, HepG2, 72 h, second value of cell, ref previously published reports (Table S1 legend).

For `O=C(NCCN1CCCC1)c1cc(-c2ccc(CN3CCOCC3)cc2)nc2ccc(F)cc12` [DDD498], the figures for the 50% inhibitory concentration (IC50) (in data set [1] (setting [4]); in data set [2] (setting [4]); in the data set with P.falciparum Dd2) were 2600 nM, 1700 nM and 4 nM, respectively. In data set [3], the “Score (safety)” value stood at 0. Moreover, the “Score (PK)” value in data set [3] worked out at 0.
On to `CC(=O)[O][Hg][c]1cc(C(C)(C)CC(C)(C)C)ccc1O` [Acetomeroctol], for which the concentration for half-maximal inhibition (IC50) (commonly the concentration that inhibits the measured activity by half) in data set [1] (setting [5]) was 5000 nM; in data set [2] it was 7200 nM; in the data set on HEK293T (setting [6]) it was 462 nM; with HepG2 (setting [7]), 1920 nM.
Turning to `C[C@@H]1O[C@@H](O[C@H]2CC[C@]3(C=O)[C@H]4CC[C@]5(C)[C@@H](C6=CC(=O)OC6)CC[C@]5(O)[C@@H]4CC[C@]3(O)C2)[C@H](O)[C@H](O)[C@H]1O` [Convallatoxin], the IC50 in data set [1] (setting [4]) is 50 nM; with P.falciparum Dd2 it was 16 nM; with HEK293T (setting [6]), 26 nM; with HepG2 (setting [7]) it was 33 nM.
As for `CCCC1(CCC)CCC2(CCN(CCCN(CC)CC)C2)CC1.O=C(O)/C=C\C(=O)O.O=C(O)/C=C\C(=O)O` [Atiprimod dimaleate], the half-inhibitory concentration (IC50) in data set [2] was 6670 nM. In data set [3], the “Score (safety)” value is reported as 0 and the “Score (PK)” value was 0.
On to `COC1=C(OC)C(=O)C(CCCCCCCCCC[P+](c2ccccc2)(c2ccccc2)c2ccccc2)=C(C)C1=O` [Mitoquinone mesylate], for which the IC50 in data set [1] (setting [4]) was 12100 nM; in data set [2] (setting [4]), 11700 nM. The “Score (safety)” value in data set [3] (human) is 3. In addition, the “Score (PK)” value in data set [3] is on record as 1 (Peak plasma concentration lower than 1/3 IC50 (Score = 1)).
On to `COc1cccc2c1C(=O)c1c(O)c3c(c(O)c1C2=O)C[C@@](O)(C(C)=O)C[C@@H]3O[C@H]1C[C@H](N)[C@H](O)[C@H](C)O1` [Daunorubicin], for which the IC50 in data set [1] (setting [4]) is 12000 nM; with HEK293T, 39 nM; in the data set with HepG2 it was 126 nM.
As for `Cc1cc(Nc2ncc(Cl)c(Nc3ccccc3S(=O)(=O)C(C)C)n2)c(OC(C)C)cc1C1CCNCC1` [Ceritinib], the IC50 in data set [1] (setting [4]) amounted to 10500 nM; in data set [2] (setting [4]), 10000 nM. For the same compound, the “Score (safety)” value in data set [3] stood at 0. Also, the “Score (PK)” value in data set [3] turned out to be 0.
Consider `C[C@H]1O[C@@H](O[C@H]2[C@@H](O)C[C@H](O[C@H]3[C@@H](O)C[C@H](O[C@H]4CC[C@@]5(C)[C@H](CC[C@@H]6[C@@H]5CC[C@]5(C)[C@@H](C7=CC(=O)OC7)CC[C@]65O)C4)O[C@@H]3C)O[C@@H]2C)C[C@H](O)[C@@H]1O` [Digitoxin], for which the IC50 is 10600 nM in data set [1] (setting [4]), 8 nM in the data set with HEK293T (setting [6]) and 11 nM in the data set with HepG2 (setting [7]). In addition, the “Score (safety)” value in data set [3] (human) is 3. In addition, the “Score (PK)” value in data set [3] is given as 0.
Turning to `CC[n+]1c(/C=C/c2ccc(N3CCCC3)cc2)cccc1/C=C/c1ccc(N2CCCC2)cc1.[I-]` [Stilbazium iodide], the half-inhibitory concentration (IC50) in data set [1] (setting [5]) is 1570 nM. Also, the half-maximal inhibitory concentration (IC50) in data set [2] was 8740 nM. Also, in data set [3], the “Score (safety)” value was found to be 0 and the “Score (PK)” value amounted to 0.
Consider Tyrothricin, for which the figures for the half-inhibitory concentration (IC50) in the data set on HEK293T and with HepG2 were 1800 nM and 1900 nM, respectively.
In the case of `CC(O)C(=O)O.Cc1[nH]c2ccccc2c1CCNCc1ccc(/C=C/C(=O)NO)cc1` [Panobinostat lactate], in data set [1] (setting [5]), the IC50 is 220 nM. Also, the IC50 in data set [2] was 300 nM. Moreover, in data set [3], the “Score (safety)” value came to 0 and the “Score (PK)” value is reported as 0.
With `CC(C)(C)NCc1ccc(Nc2ccnc3cc(Cl)ccc23)cc1O` [N-tert-butylisoquine], the IC50 in data set [1] (setting [4]) stood at 9450 nM. For the same compound, in data set [2] (setting [4]), the 50% inhibitory concentration (IC50) was found to be 9550 nM. Besides, in data set [3], the “Score (safety)” value turned out to be 0 and the “Score (PK)” value amounted to 0.
As to `CC(=O)OC[C@H]1O[C@@H]([S-])[C@H](OC(C)=O)[C@@H](OC(C)=O)[C@@H]1OC(C)=O.CCP(CC)CC.[Au+]` [Auranofin], the IC50 in data set [1] (setting [5]) was 3500 nM. Also, in data set [2], the IC50 is 2580 nM. Further, in data set [3], the “Score (safety)” value amounted to 0 and the “Score (PK)” value stood at 0.
`CC(C)NC(=N)NC(=N)Nc1ccc(Cl)c(Cl)c1.Cl` [Chlorproguanil hydrochloride]: in data set [1] (setting [5]), the IC50 amounted to 10400 nM. In addition, in data set [3], the “Score (safety)” value is listed as 0 and the “Score (PK)” value is 1 (Peak plasma concentration lower than 1/3 IC50 (Score = 1)).
As to Gramicidin, the figures for the IC50 in data set [1] (setting [5]) and in data set [2] were 70 nM and 8 nM, respectively. The “killing IC50 in words” value in data set [2] (gametocytes) was “low nanomolar range”.
Regarding `Cn1cc(CNCC2CCN(c3ncc(C(=O)NO)cn3)CC2)c2ccccc21` [Quisinostat], the half-maximal inhibitory concentration (IC50) turned out to be 3500 nM in data set [1] (setting [4]) and 5200 nM in data set [2] (setting [4]). For the same compound, the “Score (safety)” value in data set [3] is 0. The “Score (PK)” value in data set [3] is 0.
As for `COc1ccc(NC(=O)N2CCCCN3[C@H](CN(C)C)[C@H](c4ccc(C#Cc5ccccc5)cc4)[C@@H]3C2)cc1` [BRD-7929], the half-inhibitory concentration (IC50) in data set [1] (setting [5]) worked out at 3800 nM; in data set [2], 2200 nM. In addition, the “Score (safety)” value in data set [3] was 0. For the same compound, the “Score (PK)” value in data set [3] was 0.
`COc1ccc(-c2ccc3ncc4c(c3c2)n(-c2ccc(N3CCNCC3)c(C(F)(F)F)c2)c(=O)n4C)cn1` [NVP-BGT226]: the IC50 in data set [1] (setting [4]) came out at 1600 nM; in data set [2] (setting [4]) it was 13 nM. In data set [3], the “Score (safety)” value is 0. Further, in data set [3], the “Score (PK)” value was 2 (Peak plasma concentration between 1/3 IC50 and IC50 (Score = 2)).
For the compound `CC[C@@H](C(=O)O)[C@@H]1O[C@@H]([C@@H](C)[C@H](O)[C@H](C)C(=O)[C@H](CC)[C@H]2O[C@]3(C=C[C@@H](O)[C@]4(CC[C@@](C)([C@H]5CC[C@](O)(CC)[C@H](C)O5)O4)O3)[C@H](C)C[C@@H]2C)[C@@H](C)C[C@@H]1C` [Narasin], the IC50 amounted to 43000 nM in data set [1] (setting [4]) and 46000 nM in data set [2] (Plasmodium falciparum).
For `COC(=O)C1=C(C)NC(C)=C(C(=O)OC)C1c1cc([N+](=O)[O-])ccc1OCCCCNCC(O)COc1ccccc1` (centres unmarked) [YM 161514], the IC50 is 3600 nM in data set [1] (setting [5]), 5550 nM in data set [2], 2260 nM with P.falciparum Dd2 and 3970 nM with HepG2. In addition, the “Score (safety)” value in data set [3] is 0. The “Score (PK)” value in data set [3] was 0.
Turning to `[O-][n+]1ccccc1SSc1cccc[n+]1[O-]` [Bispyrithione], the IC50 came to 2350 nM in data set [1] (setting [4]) and 920 nM in data set [2] (Plasmodium falciparum).
For the compound `Cl[TeH]1(Cl)(Cl)OCCO1` [Ammonium trichlorotellurate], the values for the IC50 in data set [1] (setting [4]) and in data set [2] (setting [4]) were 2200 nM and 13700 nM, respectively.
With `CN(C)c1ccc2c(c1)Sc1cc(N(C)C)ccc1N2` [Leuco methylthioninium salt], the IC50 in data set [2] stood at 23200 nM. Moreover, in data set [3], the “Score (safety)” value was found to be 0 and the “Score (PK)” value is reported as 0.
